Source: ChEMBL document CHEMBL1201862, “PubChem BioAssay data set” (2004)
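Growth conditions: 96-well plates. Treatment: test compound, 48 hours, 5 concentrations. Analysis: linear interpolation between bracketing concentrations; unreached endpoints set to highest concentration. GI50 = concentration required for 50% inhibition of growth.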 The source made the active and inactive calls. No stated cut-off is given here; in the data, active = GI50 up to about 1.1 µM and inactive = higher.

Key:
MDA-N = assay: growth of human tumour cells (NCI), 48 h
T47D = assay: growth of human tumour cells (NCI), 48 h

Compound	GI50 (MDA-N)	GI50 (T47D)
CC(C)(C)[Si](C)(C)OCC1OC(n2cnc3c(N)ncnc32)C2OC(=S)OC12 (stereo unspecified)	27.2 µM (inactive)	
CN(CC(=O)N1CC(CCl)c2ccc([N+](=O)[O-])cc21)CC(=O)N1CC(CCl)c2ccc([N+](=O)[O-])cc21 (stereo unspecified)	> 100 µM (inactive)	
COc1cc(/C=C2/SC(c3ccccc3)N(c3cccc(Cl)c3)C2=O)cc(OC)c1OC (stereo unspecified)	16.3 µM (inactive)	25.5 µM (inactive)
C1CSCC2(COC2)CS1	> 100 µM (inactive)	
CC(C)(CC1(C)NC(=O)NC1=O)OCc1ccccc1 (stereo unspecified)		> 100 µM (inactive)
CCOC(=O)c1c(-c2ccccc2)c(-c2ccccc2)cn1C	> 10 µM (inactive)	
CCOC(=O)NC(C(F)(F)F)(C(F)(F)F)P(=O)(OC(C)C)OC(C)C	> 100 µM (inactive)	
CN(C)CCN1C(=O)c2ccccc2C1(O)c1ccc(Cl)cc1 (stereo unspecified)	79.4 µM (inactive)	94.8 µM (inactive)
COc1ccc(C2(CC(C)O)SCCCS2)cc1 (stereo unspecified)	> 100 µM (inactive)	> 100 µM (inactive)
NC1(c2cc3ccccc3s2)CCCC1	48.9 µM (inactive)	36.3 µM (inactive)
Oc1cccc(-c2ccc3c4c2O[C@H]2c5[nH]c6ccccc6c5C[C@@]5(O)[C@@H](C3)N(CC3CC3)CC[C@]425)c1	1.67 µM (inactive)	2.07 µM (inactive)
CCCCCCCCCCCCCCCCCCNc1ccn(C2OC(COP(=O)(O)OCC3OC(n4cc(C)c(=O)[nH]c4=O)CC3O)C(O)C2O)c(=O)n1 (stereo unspecified)	18.4 µM (inactive)	17.3 µM (inactive)
Nc1nc(Cl)c2ncn(Cc3ccc(CCl)cc3)c2n1		6.98 µM (inactive)
N#Cc1c(C#N)c(SSc2c(C#N)c(C#N)c(N)n2-c2ccc(F)cc2)n(-c2ccc(F)cc2)c1N	3.67 µM (inactive)	2.7 µM (inactive)
O=c1n(-c2ccccc2)c(=O)n2n1C1C=CC2CCCCCC1		> 100 µM (inactive)
Cc1cccc(NC(=O)/C=C/c2ccccc2)c1C	> 100 µM (inactive)	> 100 µM (inactive)
CSc1ccc(-c2cc(-c3nc4ccccc4[nH]3)nc3[nH]c(-c4nc5ccccc5[nH]4)cc(=O)c23)cc1		95.1 µM (inactive)

Compound	GI50 (MDA-N)	GI50 (T47D)
COc1ccc([C@H]2CC(=O)C[C@H](c3ccc(OC)cc3OC)C23C(=O)c2ccccc2C3=O)c(OC)c1	> 100 µM (inactive)	> 100 µM (inactive)
COc1ccc(/N=C2/SC(=N/N=c3\sc4ccccc4n3C)S/C2=N/c2ccc(OC)cc2)cc1	> 100 µM (inactive)	23.3 µM (inactive)
CN(CC(=O)O)c1ncc2c(n1)-c1ccccc1SC2	> 100 µM (inactive)	
O=C(c1cccc(OCc2ccccc2)c1OCc1ccccc1)N1CCSC1=S	27.9 µM (inactive)	5.66 µM (inactive)
NC(=O)N/N=C1\CC2C3CC4C2C4C13 (stereo unspecified)	> 100 µM (inactive)	> 100 µM (inactive)
CCN(CC)c1ccc(C2SCC(=O)N2c2ccc(NC(=O)c3ccc(N4C(=O)CSC4c4ccc(N(CC)CC)cc4)cc3)cc2)cc1 (stereo unspecified)		26.2 µM (inactive)
OC(c1nc2ccccc2s1)(C(F)(F)F)C(F)(F)F	> 100 µM (inactive)	> 100 µM (inactive)
Cc1ccc(OCC2OC(C#N)C(Oc3ccc(C)cc3)C2Oc2ccc(C)cc2)cc1 (stereo unspecified)		> 100 µM (inactive)
O=S(=O)(O)CCSSCCS(=O)(=O)O	> 1000 µM (inactive)	> 1000 µM (inactive)
C=C1C(O)CC[C@]2(C)C1C1OC(C)(C)O[C@]13CC(=O)C(C)=C([C@H]1OC(C)(C)OC12)C3(C)C (stereo partly specified)		47.9 µM (inactive)
CC(=O)O[C@@H]1C(C2CCCCC2)C=[N+]([O-])O[C@@H]1OC1CCCC1(c1ccccc1)c1ccccc1 (stereo partly specified)	4.28 µM (inactive)	2.45 µM (inactive)
O=C1/C(=C/c2cccc([N+](=O)[O-])c2)CCCc2ccccc21	9.33 µM (inactive)	
Oc1cc(-c2ccc(F)cc2)nc2ncccc12		48.1 µM (inactive)
C[N+]1(CCCC[N+]2(C)CCCCCCC2)CCCCCCC1	> 100 µM (inactive)	> 100 µM (inactive)
Cc1ccc(S(=O)(=O)n2cc(-c3cc(C(F)(F)F)ccn3)c3cc(Br)ccc32)cc1	45.2 µM (inactive)	1.55 µM (inactive)
O=S(=O)(N/C(=N\O)Nc1ccc(Cl)cc1)c1cc(S(=O)(=O)c2ccccc2)cs1	15.8 µM (inactive)	11.6 µM (inactive)
